{"source": "patent US6558933B2", "about": "“Mutant 1,3-propanediol dehydrogenase” (Genencor International, INC, priority 1999, dated 2003)", "key": {"[1]": {"molecular_target": "T1, E. blattae 1,3-propanediol dehydrogenase (PDD), mutant His 105 to Leu, ATCC PTA-92 (Eb_GEBT), SEQ ID NO: 2 (Shimwellia blattae, UniProt Q3ZL59, H105L)", "T1 construct": "concentrated on PM30 membrane", "T1 sequence (Q3ZL59 1-387 H105L)": "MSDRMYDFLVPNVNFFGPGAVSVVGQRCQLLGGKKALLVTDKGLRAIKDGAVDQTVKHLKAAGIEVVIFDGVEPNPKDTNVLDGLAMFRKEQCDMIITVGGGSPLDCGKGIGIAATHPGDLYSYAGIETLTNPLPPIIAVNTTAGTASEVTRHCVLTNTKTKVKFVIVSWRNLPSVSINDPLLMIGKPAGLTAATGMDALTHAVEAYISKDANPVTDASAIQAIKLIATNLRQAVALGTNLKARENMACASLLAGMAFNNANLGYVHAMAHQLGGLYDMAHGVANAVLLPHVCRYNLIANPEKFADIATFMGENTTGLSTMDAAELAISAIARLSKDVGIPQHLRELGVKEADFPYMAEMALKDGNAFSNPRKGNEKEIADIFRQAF", "experiment": "Kinetics of mutant 1,3-propanediol dehydrogenase (PDD), partially purified from E. blattae 33429 derivative PTA-92", "assay_type": "biochemical, Escherichia blattae", "experimental": "(§1) Strains—Wild type ATCC 33429, E. blattae comprising the mutant PDD ATCC accession number PTA-92.\n(§2) Growth—Cells were grown in a complex medium at 30C 500 ml in a 2800 ml fernbach with shaking at 225 rpm for 20 hr. The medium consists of KH2PO4, 5.4 g/L; (NH4)2SO4, 1.2 g/L; MgSO47H2O, 0.4 g/L; yeast extract, 2.0 g/L; tryptone, 2.0 g/L; and glycerol, 9.2 g/L in tap water. The pH was adjusted to 7.1 with KOH before autoclaving (Honda, et al., 1980, J. Bacteriol, 143:1458-1465).\n(§3) Extract prep—Cells were harvested by centrifugation with care to avoid anaerobic conditions. Pellets were resuspended in 100 mM Tricine pH 8.2 containing 50 mM KCl and 1 mM DTT. Cells were disrupted by passage through a French pressure cell. Crude extracts were clarified by centrifugation at 20 K×g for 20 min followed by 100 K×g for 1 hr to yield the high speed supernatant (HSS) fraction.\n(§4) Assays—the assay for PDD was performed as described by Johnson, E. A. et al., 1987, J. Bacteriol. 169:2050-2054.\nPartial purification of PDD—HSS was separated on a 16×100 Poros 20HQ column. The buffers were A, 60 mM HEPES, pH 7.4 containing 100 uM MnCl and B, A buffer containing 500 mM KCl. The column was loaded and developed at 10 ml/min. The gradient was 10 CV wash. A linear gradient to 70% B in 10 CV, and 1 CV to 100% B. The activity was detected in the very early fractions of the gradient. Pooled column fractions of the 33429 strain were used as collected for assays after the addition of additional DTT to 1 mM. The active fractions from the E. blattae 33429 derivative strain assigned designation PTA-92 were pooled and concentrated on a PM30 membrane and used as concentrated after the addition of additional 1 mM DTT."}, "[2]": {"molecular_target": "T2, E. blattae 1,3-propanediol dehydrogenase (PDD), wild type, strain ATCC 33429 (Eb_429T), SEQ ID NO: 6 (Shimwellia blattae, UniProt Q3ZL59)", "T2 sequence (Q3ZL59 1-387)": "T1 sequence (Q3ZL59 1-387 H105L) with L105H", "experiment": "Kinetics of wild-type 1,3-propanediol dehydrogenase (PDD), partially purified from E. blattae ATCC 33429", "assay_type": "biochemical, Escherichia blattae", "details": "wild type strain 33429, pooled column fractions with 1 mM DTT", "experimental": "as §1, §2, §3, §4\nPartial purification of PDD—HSS was separated on a 16×100 Poros 20HQ column. The buffers were A, 60 mM HEPES, pH 7.4 containing 100 uM MnCl and B, A buffer containing 500 mM KCl. The column was loaded and developed at 10 ml/min. The gradient was 10 CV wash. A linear gradient to 70% B in 10 CV, and 1 CV to 100% B. The activity was detected in the very early fractions of the gradient. […]"}}, "note": "Positions count from the first letter of the chain named. Like-named read-outs stand apart in the source and are kept apart here."}
{"molecule": "NC(=O)c1ccc[n+]([C@@H]2O[C@H](COP(=O)([O-])OP(=O)(O)OC[C@H]3O[C@@H](n4cnc5c(N)ncnc54)[C@H](O)[C@@H]3O)[C@@H](O)[C@H]2O)c1", "note": "[NAD]", "values": [{"measurement": "Km for NAD (change in words)", "setting": "[1]; mutant PDD", "result": "altered"}, {"measurement": "Km", "setting": "[2]; read-out: Km (NAD)", "result": 0.057, "unit": "mM"}]}
{"molecule": "OCCCO", "note": "[1,3-propanediol]", "values": [{"measurement": "Km for 1,3-propanediol (change in words)", "setting": "[1]; mutant PDD", "result": "altered"}, {"measurement": "Km of the mutant PDD relative to Km of wild-type PDD for 1,3-propanediol", "setting": "[1]; mutant PDD vs wild-type PDD", "result": "about 3 times"}, {"measurement": "Km", "setting": "[2]; read-out: Km (Propanediol)", "result": 28, "unit": "mM"}]}
